Assay results published in article PMC4620045 (Journal of pharmacokinetics and pharmacodynamics, 2015).
Where two headings read alike, the source gives them in different places.

Columns and labels:
[1] = Global PBPK model fitted to mouse plasma and tissue PK data; format: in vivo, mice; settings: for Nonspecific binding (NSti): mice, model estimate
[2] = test system: plasma proteins; settings: cited from earlier work
[3] = test system: enzymes responsible for its elimination; settings: cited from earlier work
[4] = monkeys; cited from earlier work
[5] = Kidney (renal clearance CLr); fixed to reported GFR value in mice; cited from earlier work
[6] = format: in vivo, BALB/c mice; settings: male, BALB/c, mouse, iv

## CC(C)C[C@H](NC(=O)[C@H](Cc1ccccc1)NC(=O)c1cnccn1)B(O)O [Bortezomib]
[1]; Bone
  Nonspecific binding (NSti): 1.06
[1]; Erythrocyte
  Nonspecific binding (NSti): 7.57
[1]; Kidney
  Nonspecific binding (NSti): 9.60
[1]; Liver
  Nonspecific binding (NSti): 1.54
[1]; Lung
  Nonspecific binding (NSti): 2.54
[1]; Muscle
  Nonspecific binding (NSti): 1.17
[1]; Remainder compartment
  Nonspecific binding (NSti): 96.76
[1]; Spleen
  Nonspecific binding (NSti): 3.68
[1]; male, BALB/c, mouse, liver, intravenous
  clearance: 0.0063 mL/min
[2]; fixed in PBPK model
  Plasma protein unbound fraction (fu): 0.17
[2]; linear binding at therapeutic concentrations
  Binding to plasma proteins: approximately 83%
[3]
  Induction or inhibition of enzymes responsible for its elimination: not an inducer or inhibitor
[4]
  Renal clearance contribution to elimination: approximately 25%
[5]
  clearance: 0.28 mL/min
[6]; bone, 0.25 mg/kg
  AUC(0-inf): 23.7 µM·h
  Kp: 26.9
  half-life: 277 h
[6]; bone, 1 mg/kg
  AUC(0-inf): 27.2 µM·h
  Kp: 1.4
  half-life: 173 h
[6]; kidney, 0.25 mg/kg
  AUC(0-inf): 24.7 µM·h
  half-life: 59 h
[6]; kidney, 1 mg/kg
  AUC(0-inf): 180 µM·h
  half-life: 204 h
[6]; liver, 0.25 mg/kg
  AUC(0-inf): 17 µM·h
  half-life: 69 h
[6]; liver, 1 mg/kg
  AUC(0-inf): 33.3 µM·h
  half-life: 105 h
[6]; lung, 0.25 mg/kg
  AUC(0-inf): 39.3 µM·h
  Kp: 44.7
  half-life: 178 h
[6]; lung, 1 mg/kg
  AUC(0-inf): 60.9 µM·h
  Kp: 3.1
  half-life: 133 h
[6]; muscle, 0.25 mg/kg
  AUC(0-inf): 5.7 µM·h
  Kp: 6.4
  half-life: 204 h
[6]; muscle, 1 mg/kg
  AUC(0-inf): 17.3 µM·h
  Kp: 0.9
  half-life: 112 h
[6]; plasma, 0.25 mg/kg
  AUC(0-inf): 0.9 µM·h
  Kp: 1
  half-life: 96 h
[6]; plasma, 1 mg/kg
  AUC(0-inf): 19.4 µM·h
  Kp: 1
  half-life: 267 h
[6]; spleen, 0.25 mg/kg
  AUC(0-inf): 103 µM·h
  Kp: 117
  half-life: 248 h
[6]; spleen, 1 mg/kg
  AUC(0-inf): 107 µM·h
  Kp: 5.5
  half-life: 131 h
[6]; whole blood, 0.25 mg/kg
  AUC(0-inf): 46.4 µM·h
  Kp: 52.8
  half-life: 182 h
[6]; whole blood, 1 mg/kg
  AUC(0-inf): 92 µM·h
  Kp: 4.8
  half-life: 173 h
